Reference: patent US5854010A, “Bioassay for detecting 2,3,7,8-tetrachlorodibenzo-para-dioxin and TCDD-like compounds and novel recombinant cell line useful therefor” (priority 1997, dated 1998)
pEC50: −log10 of the molar value.

How the values were obtained:
H1L1.1 cells = assay: Dose response of luciferase induction, 24 h (FIGS. 3-6, Table 3); type: cell-based, mouse; details: for Emax / pEC50: Mus musculus; for Emax / Induction of luciferase activity: mono-ortho-PCBs, FIG. 4; for Emax: vs 1 nM TCDD, read-out: Luciferase induction as % of that observed with TCDD; for Maximal luciferase expression / Relative inducing potency versus TCDD: fused-ring PAHs, FIG. 6
Experimental: The graph of FIG. 3 illustrates the dose dependence of luciferase induction in the mouse H1L1.1 cells measured following […] of the cells to increasing concentrations of TCDD or other toxic compounds (which others are discussed in more detail below).
More particularly, the stable cell clones for the mouse H1L1.1 cells (about 90% confluent) were plated into six-well microplates (purchased from Corning) and incubated for 24 hours with the indicated concentration of the particular toxin solubilized in DMSO. Then, the cells were lysed with 100 μl of lysis buffer and luciferase activity was determined as described above. Values represent the mean ± the standard evaluation of at least triplicate determinations.
As set out in Table 3, the responsiveness and sensitivity of the mouse H1L1.1 cells was compared to the responsiveness and sensitivity of certain other published PCDH cell bioassay systems. The other systems were a recombinant HepG2 (101L) cell line that induces firefly luciferase (see, Postlind et al., supra), a recombinant Hepa1 (T13) cell line that induces PAP activity (see El-Fouly et al., supra), and a rat H4IIE cell line that induces EROD activity (see, Kennedy et al., supra). The ED50 values were calculated by probit analysis of the dose-response data.
As set out in the graphs of FIGS. 3-6, since one use of the stably transfected mouse H1L1.1 cell lines is for detection and relative quantitative analysis of TCDD and various dioxin-like compounds (i.e., AhR ligands), the ability of various compounds besides TCDD to induce luciferase activity in the mouse H1L1.1 cells was examined. The experiments performed to determine the dose-response curves for the toxins other than TCDD set out in the graphs of FIGS. 3-6 were performed in essentially the same manner as the experiments described above to determine the dose response curve of TCDD set out in the graph of FIG. 3.
Specifically, with respect to the data illustrated in the graph of FIG. 3, cells were incubated with increasing concentrations of test chemical and luciferase activity determined after 24 hours.
It should be noted that the low numerical values of luciferase activity from induction by various PCBs reported in FIGS. 4 and 5, compared to the values reported in the other figures, are not due to actual low levels of luciferase induction, but to the fact that the detection of luminescence in these experiments was performed using a different instrument from that used in the other experiments.
However, the relative magnitude of luciferase induction by the mono-ortho-PCBs (FIG. 4) and the AROCLORS (FIG. 5) was established by directly comparing the resulting activity to that produced by a maximally inducing dose of TCDD (1 nM solubilized in DMSO) measured in the same instrument.

mouse AhR = assay: Competitive inhibition of TCDD binding to AhR
rat H4L1.1c4 cells = assay: Antagonism of TCDD luciferase induction by 2,2',5,5'-TCB (FIG. 7); type: cell-based; details: 24 h
Experimental: (§1) The bar graph of FIG. 7 illustrates that 2,2',5,5'-TCB antagonizes induction of luciferase activity by TCDD in a species-specific manner, and thus, 2,2',5,5'-TCB is not a TCDD-like compound as defined herein. In particular, six-well plates containing the indicated cell lines were incubated with DMSO (control), with TCDD (5 nM), with 2,2',5,5'-TCB (25 μM), or with both TCDD (5 nM) and 2,2',5,5'-TCB (25 μM) for 24 hours. Luciferase activity in cell lysates was determined as described above. Values represent the mean ± the standard evaluation of at least triplicate determinations.

human HG2L1.1c3 cells = assay: as above; type: cell-based; details: 24 h
Experimental: as §1

[1] = tested on: guinea pig G16L1.1c8 cells; assay: as above; type: cell-based; details: 24 h
Experimental: as §1

mouse H1L1.1 cells = assay: as above; type: cell-based
Experimental: as §1

rat AhR = assay: Competitive inhibition of TCDD binding to AhR
guinea pig AhR = assay: Competitive inhibition of TCDD binding to AhR

## Clc1ccc(-c2cc(Cl)c(Cl)c(Cl)c2Cl)cc1 [2,3,4,4',5-PCB, 2,3,4,4',5-pentachlorobiphenyl]
H1L1.1 cells; 24 h
  Emax: 20 to 30%
  Induction of luciferase activity: 10 fold

## O=c1cc(-c2ccccc2)oc2ccc3ccccc3c12 [BNF, β-naphthoflavone]
H1L1.1 cells
  Maximal luciferase expression: maximal luciferase expression was not reached
  Relative inducing potency versus TCDD: substantially less potent than TCDD

## Clc1ccc(-c2cc(Cl)c(Cl)c(Cl)c2Cl)cc1Cl [2,3,3',4,4',5-HCB, 2,3,3',4,4',5-hexachlorobiphenyl]
H1L1.1 cells; 24 h
  Emax: 20 to 30%
  Induction of luciferase activity: 10 fold

## Cc1ccc2cc3c(ccc4ccccc43)c3c2c1CC3 [3-MC, 3-methylcholanthrene]
H1L1.1 cells
  Maximal luciferase expression: maximal luciferase expression was not reached
  Relative inducing potency versus TCDD: substantially less potent than TCDD

## c1ccc2cc3c(ccc4ccccc43)cc2c1 [BA, benz[a]anthracene]
H1L1.1 cells
  Maximal luciferase expression: maximal luciferase expression was not reached
  Relative inducing potency versus TCDD: substantially less potent than TCDD

## Clc1cc2c(cc1Cl)Oc1c(Cl)c(Cl)cc(Cl)c1O2 [1,2,4,7,8-PCDD, 1,2,4,7,8-pentachlorodibenzo-p-dioxin]
H1L1.1 cells; up to 10 μM, 24 h, FIG. 3
  Luciferase activation: no luciferase activation

## Clc1ccc(-c2ccc(Cl)c(Cl)c2)cc1Cl [3,3',4,4'-TCB, 3,3',4,4'-tetrachlorobiphenyl]
H1L1.1 cells; 24 h, FIG. 3
  Level of luciferase induction relative to TCDD: comparable maximal levels
  pEC50: 7.00

## Clc1ccc(Cl)c(-c2cc(Cl)ccc2Cl)c1 [2,2',5,5'-TCB, 2,2',5,5'-tetrachlorobiphenyl]
Mouse AhR
  Competitive inhibition of TCDD binding: competitively to inhibit TCDD binding
Rat H4L1.1c4 cells; 25 μM
  Effect of 2,2',5,5'-TCB alone on luciferase activity: no significant effect
Rat H4L1.1c4 cells; TCB 25 μM + TCDD 5 nM
  Reduction of TCDD luciferase induction: 47%
Human HG2L1.1c3 cells; 25 μM
  Effect of 2,2',5,5'-TCB alone on luciferase activity: no significant effect
Human HG2L1.1c3 cells; TCB 25 μM + TCDD 5 nM
  Effect of 2,2',5,5'-TCB on TCDD luciferase induction: not affected
[1]; 25 μM
  Effect of 2,2',5,5'-TCB alone on luciferase activity: no significant effect
[1]; TCB 25 μM + TCDD 5 nM
  Effect of 2,2',5,5'-TCB on TCDD luciferase induction: not affected
Mouse H1L1.1 cells; 25 μM, 24 h
  Effect of 2,2',5,5'-TCB alone on luciferase activity: no significant effect
Mouse H1L1.1 cells; 2,2',5,5'-TCB alone, in words
  Luminescence response of H1L1.1 cells: will not cause the novel mouse H1L1.1 cell line to respond with luminescence
Mouse H1L1.1 cells; TCB 25 μM + TCDD 5 nM, 24 h
  Reduction of TCDD luciferase induction: 86%
Mouse H1L1.1 cells; in words
  Antagonism when added with TCDD: acts as an antagonist
Rat AhR
  Competitive inhibition of TCDD binding: competitively to inhibit TCDD binding
Guinea pig AhR
  Competitive inhibition of TCDD binding: but not to the guinea pig and human AhRs

## Clc1cc2oc3c(Cl)c(Cl)c(Cl)cc3c2cc1Cl [2,3,4,7,8-PCDF, 2,3,4,7,8-pentachlorodibenzofuran]
H1L1.1 cells; 24 h, FIG. 3
  Level of luciferase induction relative to TCDD: comparable levels
  pEC50: ~8.70

## Clc1ccc(-c2cc(Cl)c(Cl)c(Cl)c2)cc1Cl [3,3',4,4',5-PCB, 3,3',4,4',5-pentachlorobiphenyl]
H1L1.1 cells; 24 h, FIG. 3
  Level of luciferase induction relative to TCDD: comparable maximal levels
  pEC50: 8.70

## Clc1cc2oc3cc(Cl)c(Cl)cc3c2cc1Cl [2,3,7,8-TCDF, 2,3,7,8-tetrachlorodibenzofuran]
H1L1.1 cells; 24 h, FIG. 3
  Level of luciferase induction relative to TCDD: comparable levels
  pEC50: ~10.30
